Source: patent US20120095013A1, “USE OF KMUP-3 FOR MYOCARDIAL INFARCTION” (KAOHSIUNG MEDICAL UNIVERSITY, priority 2010, published 2012)

Columns and labels:
hypertensive rats = conditions: Wu et al., 2001, Yeh et al., 2010; cited from earlier work
MMP-9 [1] = assay: MMP-9 protein expression in TGF-β-stimulated human cardiac fibroblasts (HCFs); type: cell-based
Description: (§1) Human cardiac fibroblasts (HCFs; catalogue number: 306-05f) are purchased from Cell Applications Inc. (San Diego, Calif., USA). The cells are cultured as monolayer in Dulbecco's modified Eagle's medium containing 10% fetal bovine serum at 37° C. in 95% humidity and 5% CO2. Cells are harvested at passage 3-6 for experiment. Before treatment, HCFs are washed twice with serum-free medium and switched to serum-free medium for 24 h. To stimulate MMP-9 expression, the cultures are treated with 10 ng·mL^−1 transforming growth factor-b (TGF-β) for 24 h. HCFs are pretreated with KMUP-3 (10 mmol·L^−1) or in combination with L-NAME (100 mmol·L^−1) for 1 h before addition of 10 ng·mL^−1 TGF-β for 24 h. Each experiment is repeated three times.
(§2) The hearts are sonicated in 50 mmol·L^−1 Tris for 10 s two times and centrifuged at 13,000 rpm at 4° C. for 30 min. The protein concentration of the supernatants is determined by using bovine serum albumin as the standard. The cell extracts are boiled in ratio of 4:1 with sample buffer (100 mmol·L^−1 Tris, pH 6.8, 20% glycerol, 4% SDS, and 0.2% bromophenol blue). Electrophoresis is performed using 10% SDS-polyacrylamide gel electrophoresis and transferred to nitrocellulose membranes (Millipore Corporation, Billerica, Mass., USA). […] The intensity of the bands is quantified by densitometry.

MI rats [2] = assay: Cardiac fibrosis by Masson's trichrome staining in MI rats; type: in vivo, rat
Excerpt: (§3) MI is induced by ligation of the left anterior descending (LAD) coronary artery according to Liang et al., 2006. […] The LAD is ligated with 6.0 silk at 2 mm from the origin, and the wound is closed with primary suture. After the operation, the animals are observed until fully conscious. Sham animals undergo similar thoracotomy and pericardiotomy, except that the ligature around the coronary artery is not tied. Surviving rats are fitted with ALZET osmotic minipumps (Model 2ML4, DURECT Corporation, Cupertino, Calif., USA) immediately after recovery. At this time, most of the rats are still anaesthetized from the previously administered pentobarbital sodium; a further bolus dose of pentobarbital sodium (15 mg·kg^-1) is given if necessary. […] In the treatment group, the minimumps are filled with hydrochloride of KMUP-3 (KMUP-3·HCl; 0.3 mg·kg^-1·day^-1). In the sham and MI groups, the minipumps are filled with saline. Histological analyses are performed to all of the heart. Rats are randomly chosen to be analyzed for area of risk after coronary artery ligature by Evan blue staining as described by Harada et al. (2005). […] Ten sections in each heart are analyzed for the percentage of fibrosis. […] The total LV and infarct area and fibrosis region are measured by an investigator without knowledge of the treatment group using US NIH ImageJ, 1.42q.

MMP-9 [3] = assay: Western blot of MMP-9 protein expression in rat hearts; type: in vivo; conditions: Western blot densitometry, n=9-10, FIG. 5a
aortic smooth muscle = conditions: through opening a KATP channel and increasing eNOS; attenuated by glibenclamide; Wu et al., 2005; Lin et al., 2006; cited from earlier work
MI rats [4] = assay: Area of risk (Evans blue) and infarct size (TTC staining) in MI rats; type: in vivo, rat
Excerpt: as §3

TIMP-1 [5] = assay: TIMP-1 protein expression in TGF-β-stimulated human cardiac fibroblasts (HCFs); type: cell-based; conditions: KMUP-3 10 mmol·L−1, TGF-β 10 ng·mL−1, FIG. 6b
Description: as §1, §2

eNOS = assay: Western blot of eNOS protein expression in rat hearts; type: in vivo; conditions: Western blot densitometry, versus MI group, FIG. 5c
phosphodiesterase = conditions: Wu et al., 2005; Lin et al., 2006; cited from earlier work
TIMP-1 [6] = assay: Western blot of TIMP-1 protein expression in rat hearts; type: in vivo; conditions: Western blot densitometry, n=9-10, FIG. 5b
MI rats [7] = assay: Echocardiography 4 weeks post-surgery in MI rats (LVEDD, LVESD, fractional shortening); type: in vivo, rat; conditions: KMUP-3 for 4 weeks, FIG. 2
Excerpt: MI is induced by ligation of the left anterior descending (LAD) coronary artery according to Liang et al., 2006. […] The LAD is ligated with 6.0 silk at 2 mm from the origin, and the wound is closed with primary suture. After the operation, the animals are observed until fully conscious. Sham animals undergo similar thoracotomy and pericardiotomy, except that the ligature around the coronary artery is not tied. Surviving rats are fitted with ALZET osmotic minipumps (Model 2ML4, DURECT Corporation, Cupertino, Calif., USA) immediately after recovery. At this time, most of the rats are still anaesthetized from the previously administered pentobarbital sodium; a further bolus dose of pentobarbital sodium (15 mg·kg^−1) is given if necessary. […] In the treatment group, the minimumps are filled with hydrochloride of KMUP-3 (KMUP-3·HCl; 0.3 mg·kg^−1·day^−1). In the sham and MI groups, the minipumps are filled with saline.

[8] = test system: endothelial nitric oxide synthase (eNOS); conditions: Wu et al., 2005; Lin et al., 2006; cited from earlier work
MI rats [9] = assay: Cardiac structure and haemodynamics in rats after myocardial infarction (LAD ligation), LV catheter; type: in vivo, rat
Excerpt: Male rats (250-300 g) are provided by the National Laboratory Animal Breeding and Research Center (Taipei, Taiwan) and housed under constant temperature and controlled illumination. Food and water are available ad libitum. MI is induced by ligation of the left anterior descending (LAD) coronary artery according to Liang et al., 2006. […] The LAD is ligated with 6.0 silk at 2 mm from the origin, and the wound is closed with primary suture. After the operation, the animals are observed until fully conscious. Sham animals undergo similar thoracotomy and pericardiotomy, except that the ligature around the coronary artery is not tied. All the animals are administered with s.c. doses of analgesia (ketoprofen; 3 mg·kg^−1) and antibiotics (gentamicin; 0.7 mg·kg^−1) for 2 days. This study was approved by the Animal Care and Use Committee at Kaohsiung Medical University. Surviving rats are fitted with ALZET osmotic minipumps (Model 2ML4, DURECT Corporation, Cupertino, Calif., USA) immediately after recovery. At this time, most of the rats are still anaesthetized from the previously administered pentobarbital sodium; a further bolus dose of pentobarbital sodium (15 mg·kg^−1) is given if necessary. […] In the treatment group, the minimumps are filled with hydrochloride of KMUP-3 (KMUP-3·HCl; 0.3 mg·kg^−1·day^−1). In the sham and MI groups, the minipumps are filled with saline. After echocardiography, a PE-50 catheter is inserted through the right carotid artery to measure the LV systolic pressure (LVSP), LV end-diastolic pressure (LVEDP) and maximum rates of pressure development (LV+dP/dt) and relaxation (LV−dP/dt). […] The hearts are then excised and the atria and right ventricles are dissected out. Sections of the LV are embedded in mounting medium and the remaining tissues are transferred in the liquid nitrogen for further evaluation. Throughout the whole procedure, a further bolus dose of pentobarbital sodium (15 mg·kg^−1) is given if required.

[10] = KMUP-3·HCl 0.3 mg·kg−1·day−1 by osmotic minipump, 4 weeks, n=10

SMILES: Cn1c(=O)c2c(ncn2CCN2CCN(c3ccccc3Cl)CC2)n(C)c1=O [KMUP-1, 7-[2-[4-(2-chlorobenzene)piperazinyl]ethyl]-1,3-dimethylxanthine]
- Cardioprotection, cardiac hypertrophy and fibrosis, in words (hypertensive rats): therapeutic effect on the cardioprotection in hypertensive rats, the reducing of the cardiac hypertrophy and fibrosis

SMILES: COC(=O)[C@@H](N)CCCNC(=N)N[N+](=O)[O-] [L-NAME, N^ω-nitro-L-arginine methyl ester, reference compound]
- Effect of eNOS inhibitor pretreatment on KMUP-3 inhibition of MMP-9 expression in HCFs (MMP-9 [1]; L-NAME 100 mmol·L−1 with KMUP-3 10 mmol·L−1, TGF-β 10 ng·mL−1, FIG. 6a): reverses the inhibition of MMP-9 expression

SMILES: Cn1c(=O)c2c(ncn2CCN2CCN(c3ccc([N+](=O)[O-])cc3)CC2)n(C)c1=O [KMUP-3, 7-[2-[4-(4-nitrobenzene)-piperazinyl]ethyl]-1,3-dimethylxanthine]
- Cardiac fibrosis in central-infarct and peri-infarct areas (MI rats [2]; n=10, FIG. 4a-b): attenuates cardiac fibrosis
- Percentage of fibrosis in non-infarcted area (MI rats [2]; n=10, FIG. 4c): comparable with that of the sham-operated hearts
- MMP-9 expression in MI rat hearts (MMP-9 [3]): decreases MMP-9 expression
- Aortic smooth muscle relaxation, in words (aortic smooth muscle): may induce aortic smooth muscle relaxation
- Area of risk after coronary artery ligature (MI rats [4]; Evans blue staining, n=5, FIG. 3a): no difference between treatment groups
- Infarction size (infarct area of LV) (MI rats [4]; TTC staining, MI rats after KMUP-3 treatment, n=10, MI group 47.4±3.7%, P<0.05): 33.6±1.7%
- TIMP-1 expression in HCFs (TIMP-1 [5]): significantly enhanced
- eNOS expression in MI rat hearts (eNOS): increases significantly
- Phosphodiesterase inhibitor potency, in words (phosphodiesterase): more potent than KMUP-1
- TIMP-1 expression in MI rat hearts (TIMP-1 [6]): increases significantly
- Cardiac remodeling and dysfunction by echocardiography (LVEDD, LVESD, FS), in words (MI rats [7]): cardiac remodeling and dysfunction may be prevented
- MMP-9 expression in HCFs (MMP-9 [1]; KMUP-3 10 mmol·L−1, 1 h before TGF-β 10 ng·mL−1 for 24 h, FIG. 6a): attenuates the expression of MMP-9
- eNOS in HUVECs, in words [8]: enhance endothelial nitric oxide synthase (eNOS)
- Cardiac systolic function (LV+dP/dt), in words (MI rats [9]; 0.3 mg·kg−1·day−1 for 4 weeks): improved cardiac systolic function
- Cardiac remodelling (hypertrophy, heart weight to body weight ratio), in words (MI rats [9]; KMUP-3 treatment 4 weeks): prevents the cardiac remodelling process
- HR (heart rate) (MI rats [9]; [10]): 421 ± 5 bpm
- HW (heart weight) (MI rats [9]; [10]): 1219 ± 39 mg
- HW/BW (MI rats [9]; [10]): 2.72 ± 0.04 mg/g
- LV +dP/dt (MI rats [9]; [10]): 7637 ± 333 mmHg/s
- LV −dP/dt (MI rats [9]; [10]): −5379 ± 441 mmHg/s
- LVEDP (MI rats [9]; [10]): 12.6 ± 2.3 mmHg
- LVSP (MI rats [9]; [10]): 140.6 ± 4.2 mmHg
- Heart rate change, in words (MI rats [9]; after KMUP-3 treatment, not statistically significant): small increase in heart rate
